Paper PMC8296573, “Synthesis and Biological Evaluation of Fingolimod Derivatives as Antibacterial Agents” (ACS Omega, 2021)
In brackets after ≈: the same amount, converted by molar mass. Like-named read-outs stand apart in the source and are kept apart here.

Columns and labels:
S. aureus ATCC 25923 [1] = experiment: Antibacterial activity, pre-exposure (planktonic cells and biofilm formation); assay type: cell-based, Staphylococcus aureus; conditions: for MIC / inhibition at 5 µM / inhibition at 10 µM / inhibition at 15 µM / inhibition at 25 µM: Staphylococcus aureus, ATCC25923; for inhibition at 5 µM / inhibition at 10 µM / inhibition at 15 µM / inhibition at 25 µM / Average inhibition %, biofilms viability / Average inhibition %, planktonic cells viability: ± SD
How it was run: (§1)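 Read-outs were turbidity and resazurin reduction for planktonic cells, and resazurin followed by crystal violet biomass (A595) for biofilms. Compounds were present from inoculation onward, with 18 h aerobic growth at 37 °C under shaking.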

S. aureus ATCC 25923 [2] = experiment: Antibacterial activity, post-exposure on preformed 18-h-old biofilms; assay type: cell-based, Staphylococcus aureus; conditions: ± SD; for inhibition at 25 µM / inhibition at 50 µM / inhibition at 100 µM / inhibition at 200 µM: Staphylococcus aureus; for inhibition at 25 µM: ATCC25923, 25 µM; for inhibition at 50 µM: ATCC25923, 50 µM; for inhibition at 100 µM: ATCC25923, 100 µM; for inhibition at 200 µM: ATCC25923, 200 µM
How it was run: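 Biofilms grown 18 h without compound, medium then replaced and compound added for a further 24 h. Planktonic OD and resazurin (20 μM final) fluorescence (ex 560/em 590 nm) read; washed biofilms stained with 20 μM resazurin 30 min at 37 °C, then ethanol-fixed and crystal violet-stained, absorbance 595 nm.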

A. baumannii NCTC 13423 = experiment: Antibacterial activity, pre-exposure; assay type: cell-based, Acinetobacter baumannii; conditions: for Average inhibition %, biofilms viability / Average inhibition %, planktonic cells viability / inhibition at 10 µM / inhibition at 15 µM / inhibition at 25 µM / inhibition at 50 µM: A. baumannii NCTC 13423, pre-exposure, ± SD; for inhibition at 10 µM / inhibition at 15 µM / inhibition at 25 µM / inhibition at 50 µM / MIC: Acinetobacter baumannii, NCTC13423
How it was run: as §1

P. aeruginosa ATCC 9027 = experiment: Antibacterial activity, pre-exposure; assay type: cell-based, Pseudomonas aeruginosa; conditions: for Average inhibition %, biofilms viability / Average inhibition %, planktonic cells viability / inhibition at 50 µM / inhibition at 100 µM / inhibition at 150 µM / inhibition at 200 µM: P. aeruginosa ATCC 9027, pre-exposure, ± SD; for inhibition at 50 µM / inhibition at 100 µM / inhibition at 150 µM / inhibition at 200 µM: Pseudomonas aeruginosa, ATCC9027
How it was run: as §1

[3] = read-out: Average inhibition %, biofilms biomass
[4] = read-out: Average inhibition %, planktonic cells turbidity
[5] = 50 µM, read-out: Average inhibition %, biofilms biomass
[6] = 50 µM, read-out: Average inhibition %, planktonic cells turbidity

CCCCCCCCCCc1ccc(C(O)CC(N)(CO)CO)cc1 (stereo not shown) [Compound 55, 3-Amino-3-(hydroxymethyl)-1-(4-decylphenyl)butane-1,4-diol]
MIC (S. aureus ATCC 25923 [1]; lowest concentration with no visible growth (>90% inhibition of turbidity and viability of planktonic cells), 18 h, read-out: MIC S. aureus ATCC 25923): 5 to 15 µM (≈ 1.76 to 5.27 µg/mL)
inhibition at 5 µM (S. aureus ATCC 25923 [1]; pre-exposure, 5 µM, read-out: Average inhibition %, biofilms biomass): 48.4 ± 41.1%
inhibition at 5 µM (S. aureus ATCC 25923 [1]; pre-exposure, 5 µM, read-out: Average inhibition %, planktonic cells turbidity): 38.2 ± 53.8%
inhibition at 10 µM (S. aureus ATCC 25923 [1]; pre-exposure, 10 µM, read-out: Average inhibition %, biofilms biomass): 69.6 ± 23.5%
inhibition at 10 µM (S. aureus ATCC 25923 [1]; pre-exposure, 10 µM, read-out: Average inhibition %, planktonic cells turbidity): 43.5 ± 48.8%
inhibition at 15 µM (S. aureus ATCC 25923 [1]; pre-exposure, 15 µM, read-out: Average inhibition %, biofilms biomass): 93.4 ± 1.1%
inhibition at 15 µM (S. aureus ATCC 25923 [1]; pre-exposure, 15 µM, read-out: Average inhibition %, planktonic cells turbidity): 99 ± 0.6%
inhibition at 25 µM (S. aureus ATCC 25923 [1]; pre-exposure, 25 µM, read-out: Average inhibition %, biofilms biomass): 94.2 ± 1.1%
inhibition at 25 µM (S. aureus ATCC 25923 [1]; pre-exposure, 25 µM, read-out: Average inhibition %, planktonic cells turbidity): 98.8 ± 0.6%
MIC (S. aureus ATCC 25923 [1]; pre-exposure, lowest value among replicates, read-out: MIC S. aureus ATCC 25923, for some replicates): 5 µM (≈ 1.76 µg/mL)
MIC (S. aureus ATCC 25923 [1]; read-out: MIC (S. aureus)): 5 to 15 µM (≈ 1.76 to 5.27 µg/mL)
Average inhibition %, biofilms viability (S. aureus ATCC 25923 [1]; pre-exposure, 5 µM): 50.6 ± 42%
Average inhibition %, planktonic cells viability (S. aureus ATCC 25923 [1]; pre-exposure, 5 µM): 33.2 ± 57.6%
Average inhibition %, biofilms viability (S. aureus ATCC 25923 [1]; pre-exposure, 10 µM): 66.7 ± 28.3%
Average inhibition %, planktonic cells viability (S. aureus ATCC 25923 [1]; pre-exposure, 10 µM): 43.1 ± 49.4%
Average inhibition %, biofilms viability (S. aureus ATCC 25923 [1]; pre-exposure, 15 µM): 99.2 ± 0.2%
Average inhibition %, planktonic cells viability (S. aureus ATCC 25923 [1]; pre-exposure, 15 µM): 99.8 ± 0.1%
Average inhibition %, biofilms viability (S. aureus ATCC 25923 [1]; pre-exposure, 25 µM): 99.6 ± 0.2%
Average inhibition %, planktonic cells viability (S. aureus ATCC 25923 [1]; pre-exposure, 25 µM): 99.8 ± 0.2%
Average inhibition %, biofilms viability (S. aureus ATCC 25923 [2]; 25 µM): 17.9 ± 13.2%
Average inhibition %, planktonic cells viability (S. aureus ATCC 25923 [2]; 25 µM): 0 ± 0%
Average inhibition %, biofilms viability (S. aureus ATCC 25923 [2]; 50 µM): 36.8 ± 8.3%
Average inhibition %, planktonic cells viability (S. aureus ATCC 25923 [2]; 50 µM): 0 ± 0%
Average inhibition %, biofilms viability (S. aureus ATCC 25923 [2]; 100 µM): 44.4 ± 9.7%
Average inhibition %, planktonic cells viability (S. aureus ATCC 25923 [2]; 100 µM): 70 ± 12.5%
Average inhibition %, biofilms viability (S. aureus ATCC 25923 [2]; 200 µM): 94 ± 8.6%
Average inhibition %, planktonic cells viability (S. aureus ATCC 25923 [2]; 200 µM): 100.4 ± 0%
inhibition at 25 µM (S. aureus ATCC 25923 [2]; [3]): 51.6 ± 18.4%
inhibition at 25 µM (S. aureus ATCC 25923 [2]; [4]): 15.7 ± 13.7%
inhibition at 50 µM (S. aureus ATCC 25923 [2]; [3]): 63.1 ± 9%
inhibition at 50 µM (S. aureus ATCC 25923 [2]; [4]): 9.8 ± 13.9%
inhibition at 100 µM (S. aureus ATCC 25923 [2]; [3]): 61.4 ± 3.4%
inhibition at 100 µM (S. aureus ATCC 25923 [2]; [4]): 67.6 ± 10.3%
inhibition at 200 µM (S. aureus ATCC 25923 [2]; [3]): 80.8 ± 4.2%
inhibition at 200 µM (S. aureus ATCC 25923 [2]; [4]): 84.2 ± 3.1%
Average inhibition %, biofilms viability (A. baumannii NCTC 13423; 10 µM): 1.8 ± 3.2%
Average inhibition %, planktonic cells viability (A. baumannii NCTC 13423; 10 µM): 3.8 ± 3.3%
Average inhibition %, biofilms viability (A. baumannii NCTC 13423; 15 µM): 92.7 ± 9.4%
Average inhibition %, planktonic cells viability (A. baumannii NCTC 13423; 15 µM): 98.1 ± 2.3%
Average inhibition %, biofilms viability (A. baumannii NCTC 13423; 25 µM): 100.6 ± 0.9%
Average inhibition %, planktonic cells viability (A. baumannii NCTC 13423; 25 µM): 99.7 ± 0%
Average inhibition %, biofilms viability (A. baumannii NCTC 13423; 50 µM): 101 ± 1%
Average inhibition %, planktonic cells viability (A. baumannii NCTC 13423; 50 µM): 99.5 ± 0%
inhibition at 10 µM (A. baumannii NCTC 13423; 10 µM, read-out: Average inhibition %, biofilms biomass): 0.2 ± 0.4%
inhibition at 10 µM (A. baumannii NCTC 13423; 10 µM, read-out: Average inhibition %, planktonic cells turbidity): 0.8 ± 1.4%
inhibition at 15 µM (A. baumannii NCTC 13423; 15 µM, read-out: Average inhibition %, biofilms biomass): 74.2 ± 18.9%
inhibition at 15 µM (A. baumannii NCTC 13423; 15 µM, read-out: Average inhibition %, planktonic cells turbidity): 97.2 ± 2.5%
inhibition at 25 µM (A. baumannii NCTC 13423; 25 µM, read-out: Average inhibition %, biofilms biomass): 88.5 ± 6.6%
inhibition at 25 µM (A. baumannii NCTC 13423; 25 µM, read-out: Average inhibition %, planktonic cells turbidity): 99.5%
inhibition at 50 µM (A. baumannii NCTC 13423; [5]): 87.4 ± 4.1%
inhibition at 50 µM (A. baumannii NCTC 13423; [6]): 99.1%
MIC (A. baumannii NCTC 13423; pre-exposure, Inactive = no activity up to 50 μM, > = some inhibition but no MIC reached, read-out: MIC A. baumannii NCTC 13423): 15 µM (≈ 5.27 µg/mL)
MIC (A. baumannii NCTC 13423; supplementary molecular formula strings sheet, read-out: MIC (A. baumannii)): 15 µM (≈ 5.27 µg/mL)
Average inhibition %, biofilms viability (P. aeruginosa ATCC 9027; 50 µM): 13.6 ± 11.8%
Average inhibition %, planktonic cells viability (P. aeruginosa ATCC 9027; 50 µM): 31.2 ± 8.9%
Average inhibition %, biofilms viability (P. aeruginosa ATCC 9027; 100 µM): 9.4 ± 9.2%
Average inhibition %, planktonic cells viability (P. aeruginosa ATCC 9027; 100 µM): 30.3 ± 25.5%
Average inhibition %, biofilms viability (P. aeruginosa ATCC 9027; 150 µM): 3.3 ± 4.6%
Average inhibition %, planktonic cells viability (P. aeruginosa ATCC 9027; 150 µM): 40.3 ± 27.1%
Average inhibition %, biofilms viability (P. aeruginosa ATCC 9027; 200 µM): 5 ± 5.6%
Average inhibition %, planktonic cells viability (P. aeruginosa ATCC 9027; 200 µM): 27.1 ± 15.6%
inhibition at 50 µM (P. aeruginosa ATCC 9027; [5]): 6.4 ± 8.2%
inhibition at 50 µM (P. aeruginosa ATCC 9027; [6]): 45.1 ± 5.7%
inhibition at 100 µM (P. aeruginosa ATCC 9027; 100 µM, read-out: Average inhibition %, biofilms biomass): 10.8 ± 8.8%
inhibition at 100 µM (P. aeruginosa ATCC 9027; 100 µM, read-out: Average inhibition %, planktonic cells turbidity): 49.4 ± 8.3%
inhibition at 150 µM (P. aeruginosa ATCC 9027; 150 µM, read-out: Average inhibition %, biofilms biomass): 12 ± 10.4%
inhibition at 150 µM (P. aeruginosa ATCC 9027; 150 µM, read-out: Average inhibition %, planktonic cells turbidity): 54.3 ± 13.8%
inhibition at 200 µM (P. aeruginosa ATCC 9027; 200 µM, read-out: Average inhibition %, biofilms biomass): 3.1 ± 2.7%
inhibition at 200 µM (P. aeruginosa ATCC 9027; 200 µM, read-out: Average inhibition %, planktonic cells turbidity): 59.4 ± 7.3%
MIC P. aeruginosa ATCC 9027 (P. aeruginosa ATCC 9027; pre-exposure, Inactive = no activity up to 200 μM, > = some inhibition but no MIC reached): Inactive
